The nature of series [1]: Distribution of compound in sebaceous glands and blood of golden hamsters after single skin application. The following applies: for Concentration in sebaceous glands / concentration at 8 h: 8 h. The format is in vivo. The method, then: 6 male golden hamsters were selected for the experiment, and randomly divided evenly into 2 groups, with three golden hamsters per group. All animals were fasted overnight before administration, and were administered via a route of single application. Sampling was performed at specific time points after administration. Specific information on animal grouping, administration, sampling, etc. were detailed in Table 6.
The amorphous substance of the compound of formula I was weighed and placed in a 50 mL centrifugal tube. A mixed solvent (consisting of 75% v/v ethanol, 15% v/v glyceryl tri (2-ethylhexanoate) and 10% v/v glycerin) was added. After vortexing, heating was performed at 60° C. until the amorphous substance of the compound of formula I was completely dissolved. The amorphous substances of the compound of formula I in the two groups were prepared at 30 mg/mL and 100 mg/mL, respectively, and stored at room temperature in the dark.
After administration, blood was collected into blood collection tubes containing a heparin sodium anticoagulant at corresponding time points. Immediately after collection of whole blood, the blood collection tubes were gently shaken and placed on ice, and then centrifuged (4° C., 4000 rpm, 10 min). The supernatant plasma samples (plasma volume ≥100 μL) were collected, and stored in a refrigerator at about −80° C. The plasma samples were collected for 8 h for analysis.

Series [2] can be described thus: Solubility of amorphous substance in solvent systems (supersaturated solution, oscillated 24 h at room temperature, HPLC). The following applies: dehydrated alcohol 50%: water 50% (w/w), aqueous with cosolvent or surfactant or cyclodextrin, thermodynamic from solid, Dehydrated alcohol 50%: water 50% (w/w); read-out: 24 h solubility. The format is physicochemical. The method, then:
The amorphous substance of the compound of formula I was prepared into supersaturated solutions with different solvents, and oscillated under a room temperature condition (a constant temperature). After oscillating for 24 h, sampling was performed, and the content of the sample was detected by HPLC under condition 1.
Condition 1: • Chromatographic column: C18 (150 mm×4.6 mm×3.5 μm); • Mobile phase: binary mobile phase system, mobile phase A was 0.1% formic acid in water, mobile phase B was acetonitrile; • Elution time: 68 min; • Elution mode: gradient elution (in the gradient elution process, mobile phase A had the maximum volume percentage of 95% and the minimum volume percentage of 10%); • Detection wavelength: 270 nm.

Values joined by “and” are separate entries in the source; they are usually repeats but may differ in a detail not shown here. Identical values can stand only once. Like-named read-outs stand apart in the source and are kept apart here.

Usually solubility stands for how much of the substance goes into solution per volume. As for `Cc1ncsc1-c1ccc(CNC(=O)[C@@H]2C[C@@H](O)CN2C(=O)[C@@H](NC(=O)COCCCCOc2ccc(-c3ccc(N4C(=S)N(c5ccc(C#N)c(C(F)(F)F)c5F)C(=O)C4(C)C)cn3)cc2)C(C)(C)C)cc1` [compound of formula I], the “Concentration in sebaceous glands” value in series [1] (Left sebaceous gland, dose 1.2 mg, individual animals No. 1-3) was 10900 ng/mL and 20400 ng/mL and 7010 ng/mL; in series [1] (Left sebaceous gland, dose 4 mg, individual animals No. 4-6), 57100 ng/mL and 15000 ng/mL and 8340 ng/mL; in series [1] (Right sebaceous gland, dose 1.2 mg, individual animals No. 1-3) it was 17900 ng/mL and 15700 ng/mL; in series [1] (Right sebaceous gland, dose 4 mg, individual animals No. 4-6), 19900 ng/mL and 18400 ng/mL. Also, the “distribution between sebaceous glands and blood after skin application” value in series [1] (golden hamsters, administration via skin application) was “can enter sebaceous glands, but cannot enter blood”. Besides, the “maximum blood drug concentration” value in series [1] (group 2, dose 4 mg, over sampling time points 0.25, 0.5, 1, 2, 4, 6 and 8 h) worked out at 10.6 ng/mL. Also, the “Concentration of compound of formula I in plasma” value in series [1] (male golden hamsters, skin application 4 mg, 2 h, individual animals No. 4, 5, 6) was 10.6 ng/mL; in series [1] (male golden hamsters, skin application 4 mg, 4 h, individual animals No. 4, 5, 6), 4.42 ng/mL. Besides, the concentration at 0.5 h in series [1] (male, hamster, plasma, topical, 4 mg, male golden hamsters, skin application 4 mg, 0.5 h, individual animals No. 4, 5, 6, read-out: Concentration of compound of formula I in plasma) is < 0 ng/mL. Also, in series [1] (male, hamster, plasma, topical, 4 mg, male golden hamsters, skin application 4 mg, 1 h, individual animals No. 4, 5, 6, read-out: Concentration of compound of formula I in plasma), the concentration at 1 h was < 0 ng/mL. The concentration at 2 h in series [1] (male, hamster, plasma, topical, 4 mg, male golden hamsters, skin application 4 mg, 2 h, read-out: Concentration of compound of formula I in plasma, Mean) worked out at 11 ng/mL. In addition, the concentration at 4 h in series [1] (male, hamster, plasma, topical, 4 mg, male golden hamsters, skin application 4 mg, 4 h, read-out: Concentration of compound of formula I in plasma, Mean) came out at 4 ng/mL. Further, the concentration at 8 h in series [1] (male, hamster, right sebaceous gland, topical, 1.2 mg, Right sebaceous gland, dose 1.2 mg, individual animals No. 1-3, read-out: Concentration in sebaceous glands) worked out at 9170 ng/mL; in series [1] (male, hamster, right sebaceous gland, topical, 4 mg, Right sebaceous gland, dose 4 mg, individual animals No. 4-6, read-out: Concentration in sebaceous glands), 26600 ng/mL; in series [1] (male, hamster, sebaceous glands (left and right), topical, 1.2 mg, left and right sebaceous glands, dose 1.2 mg, read-out: Concentration mean in sebaceous glands), 13500 ng/mL; in series [1] (male, hamster, sebaceous glands (left and right), topical, 4 mg, left and right sebaceous glands, dose 4 mg, read-out: Concentration mean in sebaceous glands), 24200 ng/mL. The solubility at 24 h in series [2] was 6440 µg/mL.

The record behind these values is patent US20250129062A1, “AMORPHOUS SUBSTANCES, CRYSTALS, PHARMACEUTICAL COMPOSITIONS, PREPARATION METHODS AND USES OF THIOHYDANTOIN COMPOUND OR PHARMACEUTICALLY ACCEPTABLE SALT THEREOF” (SUZHOU KINTOR PHARMACEUTICALS, INC., priority 2021, published 2025).
